Data taken from patent US20090131494A1, “Non-Nucleoside Reverse Transcriptase Inhibitors” (priority 2005, published 2009).
Where two headings read alike, the source gives them in different places.

Experiments:
[1] = tested on: acute HIV infection of T-lymphoid cells; assay: Assay for inhibition of HIV replication (spread assay); assay type: cell-based; conditions: read-out: IC95, inhibition of HIV replication in spread assay
Method: An assay for the inhibition of acute HIV infection of T-lymphoid cells (alternatively referred to herein as the “spread assay”) was conducted in accordance with Vacca, J. P. et al., Proc. Natl. Acad. Sci. USA 1994, 91: 4096.

[2] = target: T1, mutant HIV reverse transcriptase, K103N mutation (Human immunodeficiency virus type 1 group M subtype B, UniProt P04585, K690N); assay: Analogous RT inhibition assay, K103N mutant; assay type: biochemical; conditions: RT with K103N mutation
T1 construct: made in house
Method: Analogous assays were conducted substituting mutant HIV strains to determine the […] inhibition of compounds of the present invention against mutant HIV reverse transcriptase. In one strain the reverse transcriptase has the Y181C mutation and in the other strain the reverse transcriptase has the K103N mutation. The mutations were generated with the […] site-directed mutagenesis kit (Stratagene).

[3] = Human immunodeficiency virus 1, T-lymphoid cells, tested up to 10 micromolar
[4] = Human immunodeficiency virus 1, T-lymphoid

Row | SMILES | IC95 [1, 3] | IC95 [1, 4] | IC50 [2]
1 | CCOC(=O)c1[nH]c2ccc(Cl)cc2c1SCC1CCC1 [Example 1, Ethyl 5-chloro-3-(cyclobutylmethylthio)-1H-indole-2-carboxylate] | ≤ 10 µM | – | –
2 | CCOC(=O)c1[nH]c2ccc(Cl)cc2c1SCC(F)(F)F [Example 2, ethyl 5-chloro-3-[(2,2,2-trifluoroethyl)thio]-1H-indole-2-carboxylate] | > 10 µM | – | –
3 | CCOC(=O)c1[nH]c2ccc(Cl)cc2c1SCCC(F)(F)F [Example 3, ethyl 5-chloro-3-[(3,3,3-trifluoropropyl)thio]-1H-indole-2-carboxylate] | ≤ 10 µM | – | –
4 | CCOC(=O)c1[nH]c2ccc(Cl)cc2c1SCCCC(F)(F)F [Example 4, ethyl 5-chloro-3-[(4,4,4-trifluorobutyl)thio]-1H-indole-2-carboxylate] | > 10 µM | – | –
5 | CCOC(=O)c1[nH]c2ccc(Cl)cc2c1SCC(F)(F)C(F)(F)F [Example 5, ethyl 5-chloro-3-[(2,2,3,3,3-pentafluoropropyl)thio]-1H-indole-2-carboxylate] | ≤ 10 µM | – | –
6 | CCOC(=O)c1[nH]c2ccc(Cl)cc2c1SC1CC1 [Example 6, ethyl 5-chloro-3-(cyclopropylthio)-1H-indole-2-carboxylate] | > 10 µM | – | –
7 | CCOC(=O)c1[nH]c2ccc(Cl)cc2c1SCCC1CC1 [Example 8, ethyl 5-chloro-3-[(2-cyclopropylethyl)thio]-1H-indole-2-carboxylate] | ≤ 10 µM | – | –
8 | CCOC(=O)c1[nH]c2ccc(Cl)cc2c1SC1CCC1 [Example 9, ethyl 5-chloro-3-(cyclobutylthio)-1H-indole-2-carboxylate] | ≤ 10 µM | – | –
9 | CCOC(=O)c1[nH]c2ccc(Cl)cc2c1SC1CCCC1 [Example 10, ethyl 5-chloro-3-(cyclopentylthio)-1H-indole-2-carboxylate] | ≤ 10 µM | – | –
10 | CCOC(=O)c1[nH]c2ccc(Cl)cc2c1SCC1CCCCC1 [Example 11, ethyl 5-chloro-3-[(cyclohexylmethyl)thio]-1H-indole-2-carboxylate] | – | ≤ 10 µM | –
11 | CCOC(=O)c1[nH]c2ccc(Cl)cc2c1SC1CCCCC1 [Example 12, Ethyl 5-chloro-3-(cyclohexylthio)-1H-indole-2-carboxylate] | ≤ 10 µM | – | –
12 | CCOC(=O)c1[nH]c2ccc(Cl)cc2c1S(=O)(=O)CC1CCC1 [Example 13, Ethyl 5-chloro-3-(cyclobutylmethylsulfonyl)-1H-indole-2-carboxylate] | ≤ 10 µM | – | –
13 | CCOC(=O)c1[nH]c2ccc(Cl)cc2c1S(=O)(=O)CCC(F)(F)F [Example 14, ethyl 5-chloro-3-[(3,3,3-trifluoropropyl)sulfonyl]-1H-indole-2-carboxylate] | > 10 µM | – | –
14 | CCOC(=O)c1[nH]c2ccc(Cl)cc2c1S(=O)(=O)CCCC(F)(F)F [Example 15, ethyl 5-chloro-3-[(4,4,4,-trifluorobutyl)sulfonyl]-1H-indole-2-carboxylate] | > 10 µM | – | –
15 | CCOC(=O)c1[nH]c2ccc(Cl)cc2c1S(=O)(=O)C1CC1 [Example 16, ethyl 5-chloro-3-(cyclopropylsulfonyl)-1H-indole-2-carboxylate] | > 10 µM | – | –
16 | CCOC(=O)c1[nH]c2ccc(Cl)cc2c1S(=O)(=O)CC1CC1 [Example 17, ethyl 5-chloro-3-[(cyclopropylmethyl)sulfonyl]-1H-indole-2-carboxylate] | ≤ 10 µM | – | –
17 | CCOC(=O)c1[nH]c2ccc(Cl)cc2c1S(=O)(=O)CCC1CC1 [Example 18, ethyl 5-chloro-3-[(2-cyclopropylethyl)sulfonyl]-1H-indole-2-carboxylate] | ≤ 10 µM | – | –
18 | CCOC(=O)c1[nH]c2ccc(Cl)cc2c1S(=O)(=O)C1CCC1 [Example 19, ethyl 5-chloro-3-(cyclobutylsulfonyl)-1H-indole-2-carboxylate] | > 10 µM | – | –
19 | CCOC(=O)c1[nH]c2ccc(Cl)cc2c1S(=O)(=O)C1CCCC1 [Example 20, ethyl 5-chloro-3-(cyclopentylsulfonyl)-1H-indole-2-carboxylate] | > 10 µM | – | –

Row | SMILES | IC95 [1, 3] | IC95 [1, 4] | IC50 [2]
20 | CCOC(=O)c1[nH]c2ccc(Cl)cc2c1S(=O)(=O)C1CCCCC1 [Example 21, ethyl 5-chloro-3-(cyclohexylsulfonyl)-1H-indole-2-carboxylate] | > 10 µM | – | –
21 | CCOC(=O)c1[nH]c2ccc(Cl)cc2c1S(=O)(=O)CC1CCCCC1 [Example 22, ethyl 5-chloro-3-[(cyclohexylmethyl)sulfonyl]-1H-indole-2-carboxylate] | – | ≤ 10 µM | –
22 | NC(=O)c1[nH]c2ccc(Cl)cc2c1S(=O)(=O)CC1CCC1 [Example 23, 5-Chloro-3-(cyclobutylmethylsulfonyl)-1H-indole-2-carboxamide] | ≤ 10 µM | – | –
23 | NC(=O)c1[nH]c2ccc(Cl)cc2c1S(=O)(=O)CCC(F)(F)F [Example 24, 5-chloro-3-[(3,3,3-trifluoropropyl)sulfonyl]-1H-indole-2-carboxamide] | ≤ 10 µM | – | –
24 | NC(=O)c1[nH]c2ccc(Cl)cc2c1S(=O)(=O)CCCC(F)(F)F [Example 25, 5-chloro-3-[(4,4,4-trifluorobutyl)sulfonyl]-1H-indole-2-carboxamide] | ≤ 10 µM | – | –
25 | NC(=O)c1[nH]c2ccc(Cl)cc2c1S(=O)(=O)C1CC1 [Example 26, 5-chloro-3-(cyclopropylsulfonyl)-1H-indole-2-carboxamide] | ≤ 10 µM | – | –
26 | NC(=O)c1[nH]c2ccc(Cl)cc2c1S(=O)(=O)CC1CC1 [Example 27, 5-chloro-3-[(cyclopropylmethyl)sulfonyl]-1H-indole-2-carboxamide] | ≤ 10 µM | – | –
27 | NC(=O)c1[nH]c2ccc(Cl)cc2c1S(=O)(=O)CCC1CC1 [Example 28, 5-chloro-3-[(2-cyclopropylethyl)sulfonyl]-1H-indole-2-carboxamide] | ≤ 10 µM | – | –
28 | NC(=O)c1[nH]c2ccc(Cl)cc2c1S(=O)(=O)C1CCC1 [Example 29, 5-chloro-3-(cyclobutylsulfonyl)-1H-indole-2-carboxamide] | ≤ 10 µM | – | –
29 | NC(=O)c1[nH]c2ccc(Cl)cc2c1S(=O)(=O)C1CCCC1 [Example 30, 5-chloro-3-(cyclopentylsulfonyl)-1H-indole-2-carboxamide] | ≤ 10 µM | – | –
30 | NC(=O)c1[nH]c2ccc(Cl)cc2c1S(=O)(=O)C1CCCCC1 [Example 31, 5-chloro-3-(cyclohexylsulfonyl)-1H-indole-2-carboxamide] | ≤ 10 µM | – | –
31 | NC(=O)c1[nH]c2ccc(Cl)cc2c1S(=O)(=O)C1C=CCCC1 (stereo not drawn) [Example 32, 5-chloro-3-(cyclohex-2-en-1-ylsulfonyl)-1H-indole-2-carboxamide] | ≤ 10 µM | – | –
32 | NC(=O)c1[nH]c2ccc(Cl)cc2c1S(=O)(=O)CC1CCCCC1 [Example 33, 5-chloro-3-[(cyclohexylmethyl)sulfonyl]-1H-indole-2-carboxamide] | – | ≤ 10 µM | –
33 | CC(CC(F)(F)F)S(=O)(=O)c1c(C(N)=O)[nH]c2ccc(Cl)cc12 (stereo not drawn) [Example 34, 5-chloro-3-[(3,3,3-trifluoro-1-methylpropyl)sulfonyl]-1H-indole-2-carboxamide] | ≤ 10 µM | – | –
34 | NC(=O)c1[nH]c2ccc(Cl)cc2c1S(=O)(=O)CC1CC(F)(F)C1(F)F (stereo not drawn) [Example 37] | ≤ 10 µM | – | –
35 | NC(=O)c1[nH]c2ccc(Cl)cc2c1S(=O)(=O)CC(F)(F)C(F)F [Example 38, 5-chloro-3-[(2,2,3,3-tetrafluoropropyl)sulfonyl]-1H-indole-2-carboxamide] | > 10 µM | – | –
36 | CC(C)CCS(=O)(=O)c1c(C(=O)NCc2nccn2C)[nH]c2ccc(Cl)cc12 [Example 39, 5-Chloro-3-[(3-methylbutyl)sulfonyl]-N-[(1-methyl-1H-imidazol-2-yl)methyl]-1-indole-2-carboxamid-indole-2-carboxamide] | ≤ 10 µM | – | < 2 µM
37 | CC(C)CCS(=O)(=O)c1c(C(=O)NCc2n[nH]c3ccccc23)[nH]c2ccc(Cl)cc12 [Example 40, 5-Chloro-N-(1H-indazol-3-ylmethyl)-3-[(3-methylbutyl)sulfonyl]-1H-indole-2-carboxamide] | ≤ 10 µM | – | < 2 µM
